Experimental data reported in patent US8987474B2 (University of South Florida, priority 2006, dated 2015).
Where “and” joins values, the source holds several entries; their conditions need not be identical. Equal values may be shown once.

Molecular target: Shp2 (Homo sapiens (Human), UniProt Q06124)
Test: PTP activity assay (DiFMUP substrate) with GST-Shp2
Type: biochemical
Settings: for IC50: Table II, Shp2
Excerpt: All constructs were verified by DNA sequencing.
Recombinant DEP1 was from Abcam.

Sequence of Shp2 (Q06124 205-593): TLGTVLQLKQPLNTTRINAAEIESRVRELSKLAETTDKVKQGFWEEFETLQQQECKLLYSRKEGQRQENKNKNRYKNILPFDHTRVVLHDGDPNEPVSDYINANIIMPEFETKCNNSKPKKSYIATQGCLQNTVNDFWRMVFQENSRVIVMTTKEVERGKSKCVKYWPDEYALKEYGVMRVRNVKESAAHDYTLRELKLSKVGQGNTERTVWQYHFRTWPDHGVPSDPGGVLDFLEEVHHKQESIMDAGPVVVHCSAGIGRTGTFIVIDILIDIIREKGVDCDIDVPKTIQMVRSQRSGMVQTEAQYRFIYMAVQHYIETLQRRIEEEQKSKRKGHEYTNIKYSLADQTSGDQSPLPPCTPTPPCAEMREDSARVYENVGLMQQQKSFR

O=C1Nc2ccc(S(=O)(=O)NCc3cccs3)cc2/C1=N/Nc1ccccc1[N+](=O)[O-] [RPM140, 3-[(2-Nitrophenyl)hydrazono]-2-oxo-2,3-dihydro-1H-indole-5-sulfonic acid (thiophen-2-ylmethyl)amide]
% PTP activity (concentration not given): 37 ± 4% (6)

O=C1Nc2ccc(S(=O)(=O)NCc3ccncc3)cc2/C1=N/Nc1ccccc1[N+](=O)[O-] [RPM145, 3-[(2-Nitrophenyl)hydrazono]-2-oxo-2,3-dihydro-1H-indole-5-sulfonic acid (pyridin-4-ylmethyl)amide]
% PTP activity (concentration not given): 37 + 11% (12)

CN(C)CCNS(=O)(=O)c1ccc2c(c1)/C(=N/Nc1ccccc1[N+](=O)[O-])C(=O)N2 [RPM146, 3-[(2-Nitrophenyl)hydrazono]-2-oxo-2,3-dihydro-1H-indole-5-sulfonic acid (2-dimethylaminoethyl)amide]
% PTP activity (concentration not given): 57 ± 6% (6)

CN1C(=O)/C(=N\Nc2ccccc2[N+](=O)[O-])c2cc(S(=O)(=O)N(C)C)ccc21 [RPM154]
% PTP activity (concentration not given): 73 ± 3% (6)

CN(C)S(=O)(=O)c1ccc2c(c1)/C(=N/Nc1ccccc1[N+](=O)[O-])C(=O)N2Cc1ccccc1 [RPM156]
% PTP activity (concentration not given): 34 ± 4% (12)

O=C1Nc2ccc(S(=O)(=O)NCc3ccco3)cc2/C1=N/Nc1ccccc1[N+](=O)[O-] [RPM168, 3-[(2-Nitrophenyl)hydrazono]-2-oxo-2,3-dihydro-1H-indole-5-sulfonic acid (furan-2-ylmethyl)amide]
% PTP activity (concentration not given): 42 + 4% (6)

CCCNS(=O)(=O)c1ccc2c(c1)/C(=N/Nc1ccccc1[N+](=O)[O-])C(=O)N2 [RPM170, 3-[(2-Nitrophenyl)-hydrazono]-2-oxo-2,3-dihydro-1H-indole-5-sulfonic acid propylamide]
% PTP activity (concentration not given): 43 ± 8% (12)

COCCNS(=O)(=O)c1ccc2c(c1)/C(=N/Nc1ccccc1[N+](=O)[O-])C(=O)N2 [RPM171, 3-[(2-Nitrophenyl)hydrazono]-2-oxo-2,3-dihydro-1H-indole-5-sulfonic acid (2-methoxyethyl)amide]
% PTP activity (concentration not given): 44 ± 8% (12)

O=C1Nc2ccc(S(=O)(=O)NCC3CCCO3)cc2/C1=N/Nc1ccccc1[N+](=O)[O-] (stereo not shown) [RPM172, 3-[(2-Nitrophenyl)hydrazono]-2-oxo-2,3-dihydro-1H-indole-5-sulfonic acid (tetrahydrofuran-2-ylmethyl)amide]
% PTP activity (concentration not given): 35 ± 5% (12)

CCC(C)NS(=O)(=O)c1ccc2c(c1)/C(=N/Nc1ccccc1[N+](=O)[O-])C(=O)N2 (stereo not shown) [RPM173, 3-[(2-Nitrophenyl)hydrazono]-2-oxo-2,3-dihydro-1H-indole-5-sulfonic acid sec-butylamide]
% PTP activity (concentration not given): 33 ± 7% (12)

CCN1C(=O)/C(=N\Nc2ccccc2[N+](=O)[O-])c2cc(S(=O)(=O)N(C)C)ccc21 [RPM176, 1-Ethyl-3-[(2-nitro-phenyl)-hydrazono]-2-oxo-2,3-dihydro-1H-indole-5-sulfonic acid dimethylamide]
% PTP activity (concentration not given): 50% ± 5% (6)

O=C1Nc2ccc(S(=O)(=O)N3CCOCC3)cc2/C1=N/Nc1ccccc1[N+](=O)[O-] [RPM177]
% PTP activity (concentration not given): 36 ± 8% (6)

O=C(O)c1ccc2cc(C(=O)Nc3ccccc3)ccc2c1 [RPM183]
% PTP activity (concentration not given): 79 ± 16 (7) %

COC(=O)c1ccc2cc(C(=O)Nc3ccc(C(=O)O)cc3)ccc2c1 [RPM185]
% PTP activity (at 20 μM): 71 ± 3% (3) at 20 uM

COC(=O)c1ccc2cc(C(=O)Nc3ccc(S(N)(=O)=O)cc3)ccc2c1 [RPM187]
% PTP activity (at 20 μM): 66 ± 4% (3) at 20 uM

NS(=O)(=O)c1ccc2c(c1)/C(=N/Nc1ccccc1C(=O)O)C(=O)N2 [RPM188, 2-[N′-(2-Oxo-5-sulfamoyl-1,2-dihydro-indol-3-ylidene)hydrazino]benzoic acid]
% PTP activity (at 20 μM): 65 ± 3% (3) at 20 μM

O=C1Nc2ccc(S(=O)(=O)NCc3ccc(Cl)cc3)cc2/C1=N/Nc1ccccc1C(=O)O [RPM191, 2-[N′-[5-(4-Chloro-benzylsulfamoyl)-2-oxo-1,2-dihydro-indol-3-ylidene]hydrazino}benzoic acid]
IC50: 33 to 100 µM
% PTP activity (at 20 μM): 65.07% and 53.99%

O=C(O)c1ccc(NC(=O)c2ccc3cc(C(=O)O)ccc3c2)cc1 [RPM194]
% PTP activity (at 20 μM): 69 ± 7.5% (3) at 20 uM

NS(=O)(=O)c1ccc(NC(=O)c2ccc3cc(C(=O)O)ccc3c2)cc1 [RPM195]
% PTP activity (at 20 μM): 54 ± 6% (3) at 20 uM

COC(=O)c1ccc2cc(C(=O)Nc3c(O)cccc3C(=O)O)ccc2c1 [RPM202]
IC50: 33 to 100 µM
% PTP activity (at 20 μM): 58 ± 7% (3) at 20 uM

O=C(O)c1ccc2cc(C(=O)Nc3c(O)cccc3C(=O)O)ccc2c1 [RPM204]
IC50: 33 to 100 µM
% PTP activity (at 20 μM): 68 ± 5% (3) at 20 uM

O=C1Nc2ccc(S(=O)(=O)O)cc2/C1=N/Nc1ccccc1C(=O)O [RPM211, 2-[N′-(2-Oxo-5-sulfo-1,2-dihydro-indol-3-ylidene)hydrazino]benzoic acid]
IC50: 33 to 100 µM
% PTP activity (at 20 μM): 67 ± 8% at 20 μM

O=C1Nc2ccc(S(=O)(=O)O)cc2/C1=N/Nc1ccccc1 [RPM215, 2-Oxo-3-(phenylhydrazono)-2,3-dihydro-1H-indole-5-sulfonic acid]
% PTP activity (at 20 μM): 51 ± 3% (3) at 20 μM

Cc1ccccc1N/N=C1\C(=O)Nc2ccc(S(=O)(=O)O)cc21 [RPM216, 2-Oxo-3-[(2-methylphenylhydrazono)]-2,3-dihydro-1H-indole-5-sulfonic acid]
% PTP activity (at 20 μM): 50 ± 14% (3) at 20 μM

O=C1Nc2ccc(S(=O)(=O)O)cc2/C1=N/Nc1c(Cl)cccc1Cl [RPM218, 2-Oxo-3-[(2,6-dichlorophenylhydrazono)]-2,3-dihydro-1H-indole-5-sulfonic acid]
IC50: 33 to 100 µM
% PTP activity (at 20 μM): 53 ± 0.1% (2) at 20 μM

CCc1ccccc1N/N=C1\C(=O)Nc2ccc(S(=O)(=O)O)cc21 [RPM219, 2-Oxo-3-[(2-ethylphenylhydrazono)]-2,3-dihydro-1H-indole-5-sulfonic acid]
IC50: 33 to 100 µM
% PTP activity (at 20 μM): 89 ± 2% (3) at 20 μM

O=C1Nc2ccc(S(=O)(=O)O)cc2/C1=N/Nc1ccccc1F [RPM220, 2-Oxo-3-[(2-fluorophenylhydrazono)]-2,3-dihydro-1H-indole-5-sulfonic acid]
% PTP activity (at 20 μM): 73 ± 10% (3) at 20 μM

O=C1Nc2ccc(S(=O)(=O)O)cc2/C1=N/Nc1ccccc1C(F)(F)F [RPM221, 2-Oxo-3-[(2-trifluoromethylphenylhydrazono)]-2,3-dihydro-1H-indole-5-sulfonic acid]
IC50: 33 to 100 µM
% PTP activity (at 20 μM): 63 ± 4% (3) at 20 μM

O=C1Nc2ccc(S(=O)(=O)O)cc2/C1=N/Nc1c(F)c(F)c(F)c(F)c1F [RPM222, 2-Oxo-3-(pentafluorophenylhydrazono)-2,3-dihydro-1H-indole-5-sulfonic acid]
IC50: 33 to 100 µM
% PTP activity (at 20 μM): 58 ± 6% (3) at 20 μM

O=C1Nc2ccc(S(=O)(=O)O)cc2/C1=N/Nc1cccc2ccccc12 [RPM223, 3-(Naphthalen-1-ylhydrazono)-2-oxo-2,3-dihydro-1H-indole-5-sulfonic acid]
IC50: 33 to 100 µM
% PTP activity (at 20 μM): 76 + 12% at 20 μM

O=C1Nc2ccc(S(=O)(=O)O)cc2/C1=N/Nc1ccc(Cl)cc1Cl [RPM224, 2-Oxo-3-[(2,4-dichlorophenylhydrazono)]-2,3-dihydro-1H-indole-5-sulfonic acid]
IC50: 33 to 100 µM
% PTP activity (at 20 μM): 81 ± 10% (3) at 20 μM

O=C1Nc2ccc(S(=O)(=O)O)cc2/C1=N/Nc1cc(Cl)ccc1Cl [RPM225, 2-Oxo-3-[(2,5-dichlorophenylhydrazono)]-2,3-dihydro-1H-indole-5-sulfonic acid]
IC50: 33 to 100 µM
% PTP activity (at 20 μM): 73 ± 22% at 20 μM
